EC50 and IC50 data for one compound are collected here from article PMC3466466, “Taltirelin is a superagonist at the human thyrotropin-releasing hormone receptor” (Frontiers in Endocrinology, 2012).

For experiment [1], the target named is T1, TRH-R (human TRH receptor) (Homo sapiens, UniProt P34981).
T1 construct: gene TRHR; full-length human cDNA subcloned into pcDNA3.1(+)/hygromycin; stably expressed in HEK-EM 293 cells, 16,000 receptors/cell
T1 sequence (P34981 1-398): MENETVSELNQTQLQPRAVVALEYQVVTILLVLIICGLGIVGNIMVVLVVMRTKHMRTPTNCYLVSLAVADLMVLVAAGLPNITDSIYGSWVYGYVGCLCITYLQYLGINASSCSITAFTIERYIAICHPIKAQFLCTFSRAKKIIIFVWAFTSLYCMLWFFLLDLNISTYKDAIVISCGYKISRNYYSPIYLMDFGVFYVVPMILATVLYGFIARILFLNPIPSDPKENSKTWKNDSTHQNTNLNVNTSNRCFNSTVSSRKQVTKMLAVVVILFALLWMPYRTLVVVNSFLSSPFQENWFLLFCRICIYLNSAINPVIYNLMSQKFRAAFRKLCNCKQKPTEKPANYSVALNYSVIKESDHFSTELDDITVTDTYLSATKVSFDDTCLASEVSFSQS
Nature of the experiment: intracellular Ca2+ release, calcium […] dye, FLIPR. The format is cell-based. As to conditions: read-out: EC50 for Ca signaling.

Experiment [2] concerns the target T1, TRH-R (human TRH receptor). Nature of the experiment: [3H]MeTRH competition binding, intact HEK-EM […] cells. The class given is cell-based.

As a reminder, the EC50 is the midpoint of the concentration-response curve. One may read the IC50 as the concentration that gives 50% inhibition. High values mean lower potency, low ones higher potency. Consider `CN1C(=O)C[C@@H](C(=O)N[C@@H](Cc2c[nH]cn2)C(=O)N2CCC[C@H]2C(N)=O)NC1=O` [TAL, N-[[(4S)-Hexahydro-1-methyl-2,6-dioxo-4-pyrimidinyl]carbonyl]-L-histidyl-L-prolinamide], for which the concentration giving a half-maximal response (EC50) in experiment [1] was 36 nM. This compound registered a half-maximal inhibitory concentration (IC50) in experiment [2] of 910 nM.
